These results are taken from patent US6294568A, “5-arylpyrrole derivatives” (priority 1997, dated 2001).

The test system of one test is CaCo-2 cells. The experiment in a line: Cytostatic Action Test on Various Cells (XTT method). Type of test: cell-based. The following applies: Homo sapiens, Caco-2, 72 h, read-out: Cytostatic rate (IC50). The method, then:
The cytostatic measurement of the various cancer cells were conducted according to the method of the U.S. National Cancer Institute (NCI). Adhesive cells such as CaCo-2 and HepG2 were adjusted in each of the specified culture mediums at 0.5×10^5 cells/ml concentration and pipetted into a 96 well-plate (Costar3695) in an amount of 100 μl/well. The cells were cultured under the conditions of at 37° C. in 5% CO2 atmosphere for 24 hours to allow the cell adhesion, and then the numbers of each of the cells were determined by the XTT method to be recorded as the cell number of day 0 (C0days). After that, only the medium solutions were exchanged in the control groups, and culture mediums each containing the test samples adjusted to each of the specified concentrations were exchanged In the test sample dispensing groups, then the cells were cultured under the conditions of at 37° C. in 5% CO2 atmosphere for 72 hours. The numbers of each of the cells were determined by the XTT method to be recorded as the cell number of day 3 (C3days). Further, only the medium solutions were pipetted into the control groups and the test sample administration groups were adjusted to 5×10^5 cells/ml concentrations in each of the specified culture mediums containing the test samples adjusted to each of the specified concentrations, then pipetted into a 96 well-plate (Costar3695) in an amount of 100 μl/well. The cells were cultured under the condition of at 37° C. in 5% CO2 atmosphere for 72 hours, and the number of each of the cells (T3days) were determined in the same manner.
Cell proliferation rate (%) with respect to control groups=[(T3days
-C0days)/(C3days -C0days)]×100 Formula: 5

The next test deals with Sarcoma 180 solid tumor. The experiment in a line: Antitumor Effect with respect to Sarcoma 180 Solid Tumor Mouse. Type of test: in vivo, ICR mice. The following applies: 10 mg/kg in abdominal cavity, 10 days; day 11. The method, then: The antitumor effect test was conducted according to the method of the U. S. National Cancer Institute (NCI) (Cancer Chemotherapy Reports part 3, Vol. 3, 1 (1978)). Cell suspension of Sarcoma 180 cells (mouse sarcoma virus) which was employed as the tumor cell strain for transplant was prepared by diluting the cells in the Hank's solution at 2×10^7 cells/ml concentration ([…]), and ICR mice (10 mice per group) aged 5 weeks were injected subcutaneously with 0.2 ml of the cell suspension at the region of the back. Setting the day of the tumor transplantation as day 0. the mice were administered in the abdominal cavity with the compounds of the invention (Preparation Examples 1 and 37), 5-fluorouracyl, and the solution as the control for 10 days consecutively from day 1. On day 11, the mice were sacrificed, and portions of the solid tumor were removed so that weights thereof were measured. The dosage of each of the test samples was 10 mg/kg.

The next test concerns Brewer's Yeast Fever. The experiment in a line: Antipyretic Action Test With Respect To Brewer's Yeast Fever. Type of test: in vivo, rats. Here is the method:
The antipyretic action was measured as described in the following. A sensor was inserted into the rectum of each rats and the body temperature of one hour after the insertion was recorded as the basal body temperature. The rats were injected subcutaneously with 2 ml/body of 20% brewer's yeast at the region of back and, 18 hours after the injection, the intrafebrile body temperatures were measured. Rats who had shown not less than 0.75° C. of body temperature elevation were selected to whom the test samples was administered orally. The body temperatures of the selected rats were measured every one hour for the following 5 hours. The dosage of each of the test samples was 10 mg/kg.

Test [1] deals with pain threshold of brewer's yeast inflamed hind paw. The experiment in a line: Analgesic Action Test (Randall et al.). Type of test: in vivo, SD rats. To be noted: 3 mg/kg. The method, then:
SD rats (6 rats per group) fasted overnight were employed for the test. After the measurement of pain threshold values of the left and right hind paws twice using an analgesimeter, the rats were injected subcutaneously with 0.1 ml of 20% brewer's yeast solution at the plantar area of the right hind paw to elicit inflammation. Two hours after the elicitation of inflammation, the pain threshold values of the left and right hind paws were measured and, immediately after the measurement, the test samples were administered orally to the rats. Three hours after the administration, the pain threshold values of the left and right hind paws were measured. […] The dosage amount of each of the test samples was 3 mg/kg.
Pain threshold value rising rate (%)=((pain threshold value of 3 hours after drug administration-pain threshold value of 2 hours after yeast administration)/(pain threshold value before yeast administration-pain threshold value of 2 hours after yeast administration))×100
Pain threshold value fluctuation rate (%)=(1 -(pain threshold value of 3 hours after drug administration/pain threshold value of 2 hours after […]

A further test has as its system adjuvant arthritis. The experiment in a line: Rat Adjuvant Arthritis Test. Type of test: in vivo, SD rats. To be noted: 3 mg/kg, oral. The method, then:
SD rats were injected subcutaneously with […] liquid paraffin/rat of H-37RA strain in the plantar area of the right hind paw. Only liquid paraffin (0.05 ml) was administered to control groups in the same manner. 21 days after the administration, rats showing the evidence of arthritis were selected and divided into groups having equal mean left and right hind paw volumes, and also having equal arthritis scores. From the date of the grouping, the test samples were administered orally to the rats once daily for 7 days (only the solvent was administered to the negative and positive control groups). The degree of the arthritis was quantitatively evaluated by measuring the volumes of the left and right hind paws by using a volume meter (manufactured by Muromachi Kikai) and by scoring the degree of arthritis by macroscopic observation as illustrated in Table 2. According to the scoring criteria in Table 2, 15 is a perfect score.
The dosage of each of the test samples was 3 mg/kg.

A further test relates to carrageenan footedema. The experiment in a line: Carrageenan Footedema Suppression Test. To be noted: oral; paw volume three hours after carrageenan administration. The test is classed as in vivo, SD rats. The method, then: The carrageenin footedema suppression test was conducted according to the method of Winter et al. (J. Pharm. Exp. Ther., Vol.141, 369 (1963)). The test samples suspended in Tween 80 were administered orally to SD rats (6 rats per 1 group) in an amount of 1 ml per 100 g of the body weight, while only the solvent was administered in the same manner as above as a control. One hour after the administration, 1% carrageenan physiological saline was injected subcutaneously to the rats in the plantar area of the right hind paw. Three hours after the carrageenan administration, the paw volumes were measured and the edematization rate (%) was calculated with Formula 1 and then edematization suppression rate (%) was calculated with Formula 2.
Edematization rate (%)=((paw volume after carrageenan injection- paw volume before carrageenan injection)/(paw volume before carrageenan injection)×100 Formula: 1
Edematization suppression rate (%)=((edematization rate of control-
edematization rate of test samples)/edematization rate of […]

A further test addresses T1, Human COX-1 (Homo sapiens, UniProt P23219).
T1 construct: endogenous in cells; host or cells: whole blood of a healthy human donor (own knowledge: TXB2 of clotting blood comes from platelet COX-1)
The experiment in a line: Human COX-1 Inhibitory Activity Test (TXB2 in blood). Type of test: cell-based. To be noted: IC50 from Hill Plot. The method, then: (§1) COX-1 and COX-2 activities were measured according to the method of Patrignani et al. (J. Pharm. Exp. Ther. Vol. 271, 1705 (1994)).
(1) COX-1 activity was measured in the following procedure. […] The serum obtained by 10 minutes of centrifugation at 2000 rpm at 4° C. was stored at -40° C. until the measurement of the amount of thromboxane B2 (TXB2). The test samples, which had been dissolved in ethanol and diluted to the specified concentrations, were previously dispensed into the glass test tubes, and the solvent was evaporated to dryness by Centrifugal Vaporizer (CVE-200D, manufactured by Tokyo Rika Mfg. Co., Ltd.) so that the test samples were added to the plasma.
(3) The measurement for the TXB2 content was conducted in the following procedure. In a part of a 96 well plate coated with anti-rabbit IgG antibody, 2 wells were allotted respectively to blank well, Non-specific Binding (NSB) well, Maximum Binding (B0) well, standard wells at 7 concentrations of TXB2 (1000 pg/ml) in doubling dilution ranging from 1000-15.6 pg/ml. The rest of the wells were used for the measurement of the samples. EIA buffer was added to the NSB wells (100 μl ) and B0 wells (50 μl), respectively. 50 μl of each of the standard dilution was added in an order from thinner to thicker concentrations. Each of the samples was added to the rest of the wells in an amount of 50 μl. Then, 50 μl of TXB2 tracer was added to each of the wells except for the blank wells. Further, 50 μl of TXB2 antibody was added to each of the wells except for the NSB wells and blank wells, then the well plate was covered with a plastic film and the reaction continued for 18 hours at room temperature. When the reaction was terminated, the wells were washed 5 times with a wash buffer. 200 μl of Elman's reagent was added to each of the wells and then the well plate was covered with a plastic film and developed for 60 minutes in a dark place. The absorbance at 405 nm was measured by an Immuno Reader (NJ-2000, manufactured by Nippon Intermed Co., Ltd.). From the measurement result, %B/B0 was calculated and, applying it to the approximation formula of Hill Plot, the concentration of the samples was determined to be 2,000 times concentration. […]

The target of another test is T2, Human COX-2 (Homo sapiens, UniProt P35354).
T2 construct: endogenous in cells; host or cells: heparinised whole blood of a healthy human donor pretreated with aspirin, stimulated with LPS (own knowledge: COX-2 is induced in monocytes)
T2 sequence (P35354 18-604): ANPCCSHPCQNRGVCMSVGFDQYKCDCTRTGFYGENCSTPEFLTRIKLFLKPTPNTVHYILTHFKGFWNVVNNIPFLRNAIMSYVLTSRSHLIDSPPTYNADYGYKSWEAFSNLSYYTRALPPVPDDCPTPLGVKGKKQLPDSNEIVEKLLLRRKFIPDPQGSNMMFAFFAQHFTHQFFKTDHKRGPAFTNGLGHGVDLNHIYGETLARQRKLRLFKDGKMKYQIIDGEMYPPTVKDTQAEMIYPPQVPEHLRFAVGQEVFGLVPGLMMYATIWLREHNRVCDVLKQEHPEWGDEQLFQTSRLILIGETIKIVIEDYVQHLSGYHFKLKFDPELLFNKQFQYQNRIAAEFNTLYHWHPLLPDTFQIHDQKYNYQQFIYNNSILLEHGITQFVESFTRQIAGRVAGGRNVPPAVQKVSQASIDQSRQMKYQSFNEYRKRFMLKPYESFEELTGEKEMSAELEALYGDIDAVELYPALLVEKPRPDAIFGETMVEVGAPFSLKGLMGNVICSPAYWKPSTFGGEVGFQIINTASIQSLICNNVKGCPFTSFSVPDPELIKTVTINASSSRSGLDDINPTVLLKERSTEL
The experiment in a line: Human COX-2 Inhibitory Activity Test (LPS-induced PGE2 in blood). Type of test: cell-based. The method, then: as §1
(2) COX-2 activity was measured in the following procedure. To blood collected from a healthy normal who had taken 330 mg of aspirin 48 hours before the blood collection in order to inhibit the COX-1 activity, 10 unit/ml of sodium heparin was added, and then pipetted into glass test tubes by 1 ml. 10 μg/ml of Lipopolysaccharide (LPS) was added thereto and the plasma obtained by the specified operation was stored at -40° C. until the measurement for the amount of prostaglandin E2 (PGE2). Test samples containing the test samples were treated in the same manner of operation as described above.
(4) The measurement for the PGE2 content was conducted in the following procedure. In a part of 96 well plate coated with goat anti-mouse antibody, 2 wells were alloted respectively to a blank well, Non-specific Binding (NSB) well, Maximum Binding (B0) well, standard wells at seven concentrations of PGE2 (1000 pg/ml) in doubling dilution ranging from 1000-15.6 pg/ml. The rest of the wells were used for the sample measurement. EIA buffer was added to the NSB wells (100 μl) and to the B0 wells (50 μl), respectively. 50 μl of each of the standard dilution was added in an order from thinner to thicker concentrations. Each of the samples was added to the rest of the wells in an amount of 50 μl. Then, 50 μl of PGE2 tracer was added to each of the wells except for blank wells. Further, 50 μl PGE2 monoclonal antibody was added to each of the wells except for the NSB wells and blank wells, then the well plate was covered with a plastic film and the reaction continued at room temperature for 18 hours. When the reaction was terminated, the wells were washed 5 times with a wash buffer. 200 μl of Elman's reagent was added to each of the wells, and then the well plate was covered with a plastic film and developed for 60 minutes in a dark place. The absorbance at 405 nm was measured by an Immuno Reader (NJ-2000, manufactured by Nippon Intermed Co., Ltd.). From the measurement result, %B/B0 was calculated and, applying it to the approximation formula of Hill Plot, the concentration of the samples was determined to be 40 times concentration. The dilution was conducted with an EIA buffer throughout the Test Example 3.

T1 sequence (P23219 24-599): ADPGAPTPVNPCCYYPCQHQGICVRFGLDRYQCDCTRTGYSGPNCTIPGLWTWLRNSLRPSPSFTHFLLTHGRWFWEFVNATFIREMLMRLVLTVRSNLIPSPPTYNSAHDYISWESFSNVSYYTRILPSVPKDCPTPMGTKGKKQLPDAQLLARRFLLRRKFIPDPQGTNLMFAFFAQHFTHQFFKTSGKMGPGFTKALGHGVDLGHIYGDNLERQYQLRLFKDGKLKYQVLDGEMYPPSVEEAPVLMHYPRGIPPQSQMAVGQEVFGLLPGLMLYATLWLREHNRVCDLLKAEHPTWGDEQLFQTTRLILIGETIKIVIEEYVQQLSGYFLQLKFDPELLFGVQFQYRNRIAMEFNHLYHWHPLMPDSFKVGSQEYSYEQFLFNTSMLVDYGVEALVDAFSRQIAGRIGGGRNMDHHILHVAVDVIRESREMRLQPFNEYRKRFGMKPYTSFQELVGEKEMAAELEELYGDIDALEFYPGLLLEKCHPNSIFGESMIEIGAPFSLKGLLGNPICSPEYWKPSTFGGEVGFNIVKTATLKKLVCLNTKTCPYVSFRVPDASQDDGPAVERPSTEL

Consider `O=c1[nH]cc(F)c(=O)[nH]1` [5-fluorouracil, reference compound], for which the IC50 in the test with CaCo-2 cells is 3.3 µM. For the same compound, the “Tumor Weight” value in the test with Sarcoma 180 solid tumor came to 0.930 g.
In the case of `CS(=O)(=O)Nc1ccc([N+](=O)[O-])cc1OC1CCCCC1` [Control Compound (c), N-(2-cyclohexyloxy-4-nitrophenyl)methanesulfonamido, reference compound], the “Body temperature 1 Hour After” value in the test with Brewer's Yeast Fever (10 mg/kg oral, 1 hour after) stood at 37.67 °C. The “Body temperature 3 Hours After” value in the test on Brewer's Yeast Fever (10 mg/kg oral, 3 hours after) came to 37.04 °C. Moreover, in the test on Brewer's Yeast Fever (10 mg/kg oral, 5 hours after), the “Body temperature 5 Hours After” value was found to be 37.12 °C. Moreover, the “Intrafebrile Body Temperature” value in the test on Brewer's Yeast Fever (18 hours after yeast injection, before administration, 10 mg/kg group) is 38.89 °C. In the test on Brewer's Yeast Fever (one hour after sensor insertion, before yeast, 10 mg/kg group), the “Basal Body Temperature” value came out at 37.41 °C. The “threshold value fluctuation, non-inflammatory paw” value in test [1] is given as “exerted no influence on the threshold value fluctuation with respect to the non-inflammatory paw in the same manner as control compound (c)”. In addition, in test [1] (po, 3 h), the “Pain Threshold Value Fluctuation Rate” value is reported as -1.46% and the “Pain Threshold Value Rising Rate” value is recorded as 24.0%.
In the case of `COc1ccc2c(c1)c(CC(=O)O)c(C)n2C(=O)c1ccc(Cl)cc1` [Indomethacin, reference compound], in the test with adjuvant arthritis (day 21 (starting date of administration), once daily), the “Right Hind Paw Volume day 21” value is 3.88 mL. Further, in the test with adjuvant arthritis (day 27, once daily for 7 days), the “Right Hind Paw Volume day 27” value came to 2.69 mL.
For the compound `Cc1cccc(-c2cc(C)[nH]c2-c2ccc(S(C)(=O)=O)cc2)c1` [Preparation Example 21, 4-(3-methylphenyl)-2-methyl-5-(4-methylsulfonylphenyl)-1H-pyrrole], the “Edematization Suppression rate” value in the test on carrageenan footedema is listed as 31.6%. The IC50 at Human COX-1 turned out to be 39.2 µM; at Human COX-2 (human blood, LPS, PGE2, IC50 from Hill Plot), 129 nM. In addition, on Human COX-2 (ratio of IC50 COX-1 to COX-2), the COX-1/COX-2 stood at 304.
